Results on 11 compounds are retold here after ChEMBL document CHEMBL1201862, “PubChem BioAssay data set” (2004).

What all share (experiment): inhibition of tumour cell growth, NCI panel, 48 h
Assay [1] deals with OVCAR-8.
Assay [2] concerns HOP-92.
In assay [3] the test system is SF-295.
Assay [4] relates to SW-620.
The subject of assay [5] is MCF7.
Assay [6] has as its system NCI/ADR-RES.
Assay [7] has as its system SK-OV-3.
Assay [8] concerns NCI-H522.
In assay [9] the test system is SF-268.
In assay [10] the test system is OVCAR-5.
Assay [11] concerns CCRF-CEM.
Assay [12] concerns Hs-578T.
Assay [13] has as its system U-251.
The subject of assay [14] is HL-60.
The test system of assay [15] is MDA-N.
For assay [16], the system named is T47D.
In assay [17] the test system is NCI-H23.
In assay [18] the test system is A549.
Assay [19] has as its system M14.
Assay [20] deals with HCC 2998.

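48-hour exposure; five concentrations; linearly interpolated endpoints. GI50: concentration for 50% inhibition of growth.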 Active and inactive are the calls of the source. Cut-off read from the data, not from the text of the source: active = GI50 up to about 1.1 µM and inactive = higher.

As to `CC1(CC2=C(C(=O)NCCO[Si](C)(C)C(C)(C)C)C3(OCCO3)C2=O)OCCO1`, the GI50 in assay [1], in assay [2], in assay [3], in assay [4], in assay [5] and in assay [6] was > 100 µM (inactive) each time. The GI50 in assay [7] is > 100 µM (inactive); in assay [8], 28.4 µM (inactive); in assay [9] it was > 100 µM (inactive); in [10], > 100 µM (inactive); in [11] it was 54.2 µM (inactive); in [12] it was > 100 µM (inactive). Further, the GI50 in assay [13] was > 100 µM (inactive); in assay [14] it was 29.1 µM (inactive); in [15], > 100 µM (inactive); in assay [16] it was 59.8 µM (inactive); in assay [17], 63.5 µM (inactive); in assay [18], > 100 µM (inactive). Moreover, the GI50 in assay [19] was > 100 µM (inactive).
With `CC(C)N/C(=N\C#N)NS(=O)(=O)c1cnccc1NC1CCCCCCC1`, the GI50 in assay [20], in assay [1], in assay [3], in assay [4], in assay [5] and in assay [6] was > 100 µM (inactive) each time. The GI50 in [7], in assay [8], in assay [9], in assay [10], in assay [11] and in assay [12] was > 100 µM (inactive) each time. Besides, the GI50 in assay [13], in [15], in assay [16], in assay [17], in assay [18] and in assay [19] was > 100 µM (inactive) each time.
On to `N[C@H]1CCN(c2c(F)cc3c(=O)c(C(=O)O)cn4c3c2Oc2c-4ccc3c2ccc2ccccc23)C1`, for which the GI50 was 0.664 µM (active) in assay [1]; 2.46 µM (inactive) in [2]; 1.48 µM (inactive) in assay [3]; 0.276 µM (active) in assay [4]; 0.817 µM (active) in [5]; 2.8 µM (inactive) in assay [6]. Moreover, the GI50 in assay [8] was 0.498 µM (active); in [9], 0.288 µM (active); in [10] it was 1.58 µM (inactive); in [12], 0.731 µM (active); in [13], 0.121 µM (active); in [14], 4.21 µM (inactive). Moreover, the GI50 in assay [15] is 0.767 µM (active); in [16], 2.65 µM (inactive); in [17] it was 1.22 µM (inactive); in assay [18], 1.12 µM (inactive); in assay [19] it was 2.15 µM (inactive).
In the case of `CC1C(c2ccc3c(c2)OCO3)c2cc3c(cc2OC1N1CCCCC1)OCO3` (centres undefined), the GI50 was 20 µM (inactive) in [20]; > 100 µM (inactive) in [1]; 30.6 µM (inactive) in assay [3]; 55 µM (inactive) in assay [4]; 65.9 µM (inactive) in assay [5]; 42 µM (inactive) in [6]. Also, the GI50 is 31.6 µM (inactive) in [8]; > 100 µM (inactive) in assay [9]; > 100 µM (inactive) in [10]; 35.2 µM (inactive) in assay [11]; 35.4 µM (inactive) in assay [12]; 20.8 µM (inactive) in assay [15]. Besides, the GI50 in assay [16] is 30.7 µM (inactive); in [17], 60.8 µM (inactive); in assay [18], > 100 µM (inactive); in [19], 40.2 µM (inactive).
As to `CC(C)(C)c1cc(C2=NNC(c3ccccc3)C2)cc(C(C)(C)C)c1O` (centres undefined), the GI50 in assay [1] was 16.7 µM (inactive); in assay [2], 14.9 µM (inactive); in assay [3], 16.5 µM (inactive); in assay [4], 15.7 µM (inactive); in [5], 13.8 µM (inactive); in [6], 17 µM (inactive). Besides, the GI50 is 18.5 µM (inactive) in [7]; 14.7 µM (inactive) in [8]; 17 µM (inactive) in assay [9]; 21.1 µM (inactive) in assay [10]; 19.1 µM (inactive) in assay [12]; 15.5 µM (inactive) in assay [13]. Further, the GI50 is 12.6 µM (inactive) in assay [15]; 10.2 µM (inactive) in assay [16]; 17.2 µM (inactive) in assay [17]; 15.3 µM (inactive) in assay [18]; 17.2 µM (inactive) in assay [19].
In the case of `COC(=O)NN(C(=O)OC)c1c(-c2ccccc2)nc(SC)n1N`, the GI50 in [20], in [1], in assay [3], in assay [4], in assay [5] and in assay [6] was > 100 µM (inactive) in each case. Also, the GI50 in assay [8], in assay [9], in [10], in assay [11], in assay [12] and in assay [13] was > 100 µM (inactive) in each case. For the same compound, the GI50 in [14], in [15], in [16], in assay [17], in assay [18] and in assay [19] was > 100 µM (inactive) throughout.
Take `O=C1Nc2ccccc2S/C1=C\c1ccccc1C(F)(F)F`: the GI50 in [1] was 72.6 µM (inactive); in [2], 5.38 µM (inactive); in assay [3], > 100 µM (inactive); in assay [4] it was > 100 µM (inactive); in [5] it was 98.6 µM (inactive); in assay [6] it was > 100 µM (inactive). The GI50 in assay [7] is 89.5 µM (inactive); in [8] it was 30.5 µM (inactive); in assay [9], > 100 µM (inactive); in assay [10] it was > 100 µM (inactive); in [11], 2.24 µM (inactive); in assay [12] it was 51.9 µM (inactive). The GI50 in assay [13] is 71.9 µM (inactive); in assay [14] it was 4.2 µM (inactive); in assay [15] it was > 100 µM (inactive); in [16], > 100 µM (inactive); in assay [18], > 100 µM (inactive); in [19], > 100 µM (inactive).
As for `CCOC(=O)C(C(=O)COC(C)(C)C)[C@@H]1C=C[C@H](OC(C)=O)C1` (some centres undefined), the GI50 in assay [20], in [3], in assay [4], in assay [5], in assay [6] and in [7] was > 100 µM (inactive) in each case. Moreover, the GI50 in assay [9] is > 100 µM (inactive); in [10], > 100 µM (inactive); in assay [11], 73.8 µM (inactive); in [12], > 100 µM (inactive); in [13], > 100 µM (inactive); in [15], > 100 µM (inactive). Also, the GI50 in [16], in assay [17], in assay [18] and in assay [19] was > 100 µM (inactive) each time.
For `Cc1ccc(S(=O)(=O)Nc2ccccc2C=O)cc1`, the GI50 in assay [1] is 14.7 µM (inactive); in [2] it was 2.35 µM (inactive); in assay [3], 18.9 µM (inactive); in assay [4], 17 µM (inactive); in assay [5], 12.4 µM (inactive); in assay [6], 14.6 µM (inactive). Moreover, the GI50 in assay [7] is 26.8 µM (inactive); in assay [8], 29 µM (inactive); in [10] it was 25.1 µM (inactive); in assay [12], 15.8 µM (inactive); in assay [13], 13.1 µM (inactive); in assay [14], 11 µM (inactive). Also, the GI50 was 15.7 µM (inactive) in assay [15]; 14.9 µM (inactive) in assay [16]; 14.7 µM (inactive) in assay [17]; 27.1 µM (inactive) in [18]; 19.3 µM (inactive) in assay [19].
Turning to `N#Cc1ccc(CSC2=C(c3ccc(Cl)cc3)S/C(=C3\SC(SCc4ccc(C#N)cc4)=C(c4ccc(Cl)cc4)S3)S2)cc1`, the GI50 in assay [20], in [1], in assay [3], in assay [4], in [5] and in assay [6] was > 100 µM (inactive) throughout. Further, the GI50 in assay [7], in [8], in assay [9], in [10], in assay [11] and in assay [12] was > 100 µM (inactive) each time. In addition, the GI50 in assay [13], in assay [14], in assay [15], in assay [16], in assay [17] and in [18] was > 100 µM (inactive) in each case. Further, the GI50 in [19] is > 100 µM (inactive).
For the compound `O=C1NN=C(c2ccc(Cl)cc2)CC1C1C(=O)N(c2ccccc2)N=C1c1ccccc1` (centres undefined), the GI50 in [20] was 26.8 µM (inactive); in assay [1], 41.9 µM (inactive); in assay [3], 29.9 µM (inactive); in [4] it was 30.5 µM (inactive); in assay [5] it was 40.5 µM (inactive); in assay [6], 40.6 µM (inactive). The GI50 in assay [7] is 39.5 µM (inactive); in assay [8] it was 23.6 µM (inactive); in [9], 48.2 µM (inactive); in [10], 28.9 µM (inactive); in [11], 26.5 µM (inactive); in assay [12] it was 18.8 µM (inactive). In addition, the GI50 in assay [13] is 33 µM (inactive); in assay [14], 37.2 µM (inactive); in assay [15], 34.8 µM (inactive); in assay [16] it was 22.1 µM (inactive); in [17], 23.3 µM (inactive); in assay [18] it was 34 µM (inactive). In addition, the GI50 in assay [19] was 37.8 µM (inactive).
